Values quoted from earlier work, collected in patent US20260000700A1, “TARGETED LINEAR CONJUGATES COMPRISING POLYETHYLENEIMINE AND POLYETHYLENE GLYCOL AND POLYPLEXES COMPRISING THE SAME” (TARGIMMUNE THERAPEUTICS AG, priority 2022, published 2026).

Molecular target: EGFR (Homo sapiens, UniProt P00533)

Kd: 0.022 µM
Sequence: YHWYGYTPQNVI [GE-11]
